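Abbreviation: GI50, concentration required for 50% inhibition of growth. TGI: concentration producing complete growth inhibition.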
Experiments:
Assay in all cases: DTP human tumour cell line panel, 384-well format
SK-OV-3 ovarian = tested on: SK-OV-3 ovarian
IGROV1 ovarian = tested on: IGROV1 ovarian
BT-549 breast = tested on: BT-549 breast
786-0 renal = tested on: 786-0 renal
SK-MEL-5 melanoma = tested on: SK-MEL-5 melanoma
HL-60(TB) leukemia = tested on: HL-60(TB) leukemia
LOX IMVI melanoma = tested on: LOX IMVI melanoma
NCI-H226 lung = tested on: NCI-H226 lung
MOLT-4 leukemia = tested on: MOLT-4 leukemia
SNB-19 CNS = tested on: SNB-19 CNS
MCF7 breast = tested on: MCF7 breast
SF-295 CNS = tested on: SF-295 CNS
DU-145 prostate = tested on: DU-145 prostate
M14 melanoma = tested on: M14 melanoma
HOP-92 NSCLC = tested on: HOP-92 NSCLC
U251 glioblastoma = tested on: U251 glioblastoma
MDA-MB-231 breast = tested on: MDA-MB-231 breast
NCI-H460 NSCLC = tested on: NCI-H460 NSCLC
UACC-257 melanoma = tested on: UACC-257 melanoma
SK-MEL-28 melanoma = tested on: SK-MEL-28 melanoma
OVCAR-5 ovarian = tested on: OVCAR-5 ovarian
HS 578T breast = tested on: HS 578T breast
HCT-15 colon = tested on: HCT-15 colon
COLO 205 colon = tested on: COLO 205 colon
OVCAR-8 ovarian = tested on: OVCAR-8 ovarian
UO-31 renal = tested on: UO-31 renal
UACC-62 melanoma = tested on: UACC-62 melanoma
A549 NSCLC = tested on: A549 NSCLC
OVCAR-4 ovarian = tested on: OVCAR-4 ovarian
NCI-H322M lung = tested on: NCI-H322M lung
PC-3 prostate = tested on: PC-3 prostate
TK-10 renal = tested on: TK-10 renal
EKVX NSCLC = tested on: EKVX NSCLC
OVCAR-3 ovarian = tested on: OVCAR-3 ovarian
HT29 colon = tested on: HT29 colon
NCI/ADR-RES ovarian = tested on: NCI/ADR-RES ovarian
NCI-H23 lung = tested on: NCI-H23 lung
SF-268 CNS = tested on: SF-268 CNS
HCC-2998 colon = tested on: HCC-2998 colon
SF-539 CNS = tested on: SF-539 CNS
MDA-MB-468 breast = tested on: MDA-MB-468 breast
A498 renal = tested on: A498 renal
HCT-116 colon = tested on: HCT-116 colon
RXF 393 renal = tested on: RXF 393 renal
CAKI-1 renal = tested on: CAKI-1 renal
MALME-3M melanoma = tested on: MALME-3M melanoma
ACHN renal = tested on: ACHN renal
MDA-MB-435 melanoma = tested on: MDA-MB-435 melanoma
SR leukemia = tested on: SR leukemia
SN12C renal = tested on: SN12C renal
RPMI-8226 leukemia = tested on: RPMI-8226 leukemia
SNB-75 CNS = tested on: SNB-75 CNS
KM12 colon = tested on: KM12 colon
SW-620 colon = tested on: SW-620 colon
CCRF-CEM leukemia = tested on: CCRF-CEM leukemia
NCI-H522 lung = tested on: NCI-H522 lung
HOP-62 NSCLC = tested on: HOP-62 NSCLC
T-47D breast = tested on: T-47D breast

Cc1cc(Nc2ncnc3ccc(NC4=NC(C)(C)CO4)cc23)ccc1Oc1ccn2ncnc2c1
GI50 (SK-OV-3 ovarian): 13 µM | TGI (SK-OV-3 ovarian): > 46 µM | GI50 (IGROV1 ovarian): 5 µM | TGI (IGROV1 ovarian): > 40.4 µM | GI50 (BT-549 breast): 5.36 µM | TGI (BT-549 breast): 10.7 µM | GI50 (786-0 renal): 4.25 µM | TGI (786-0 renal): 8.71 µM | GI50 (SK-MEL-5 melanoma): 12.3 µM | TGI (SK-MEL-5 melanoma): 26.6 µM | GI50 (HL-60(TB) leukemia): 5.59 µM | TGI (HL-60(TB) leukemia): 10.3 µM | GI50 (LOX IMVI melanoma): 14.6 µM | TGI (LOX IMVI melanoma): 28.7 µM | GI50 (NCI-H226 lung): 12.5 µM | TGI (NCI-H226 lung): > 43 µM | GI50 (MOLT-4 leukemia): 1.93 µM | TGI (MOLT-4 leukemia): 7.7 µM | GI50 (SNB-19 CNS): 9.26 µM | TGI (SNB-19 CNS): > 61.7 µM | GI50 (MCF7 breast): 18.3 µM | TGI (MCF7 breast): > 48.2 µM | GI50 (SF-295 CNS): 16.3 µM | TGI (SF-295 CNS): 32.9 µM | GI50 (DU-145 prostate): 13.6 µM | TGI (DU-145 prostate): 27.8 µM | GI50 (M14 melanoma): 11.4 µM | TGI (M14 melanoma): > 57.2 µM | GI50 (HOP-92 NSCLC): 4.48 µM | TGI (HOP-92 NSCLC): 10.3 µM | GI50 (U251 glioblastoma): 15.9 µM | TGI (U251 glioblastoma): 36.1 µM | GI50 (MDA-MB-231 breast): 13.6 µM | TGI (MDA-MB-231 breast): 27.7 µM | GI50 (NCI-H460 NSCLC): 4.32 µM | TGI (NCI-H460 NSCLC): 9.09 µM | GI50 (UACC-257 melanoma): 20.2 µM | TGI (UACC-257 melanoma): 44.6 µM | GI50 (SK-MEL-28 melanoma): 8.21 µM | TGI (SK-MEL-28 melanoma): 49.7 µM | GI50 (OVCAR-5 ovarian): > 38.8 µM | TGI (OVCAR-5 ovarian): > 58.1 µM | GI50 (HS 578T breast): 3.74 µM | TGI (HS 578T breast): 8.79 µM | GI50 (HCT-15 colon): 9.08 µM | TGI (HCT-15 colon): 25.4 µM | GI50 (COLO 205 colon): > 40.9 µM | TGI (COLO 205 colon): > 55.1 µM | GI50 (OVCAR-8 ovarian): 14.3 µM | TGI (OVCAR-8 ovarian): > 44.3 µM | GI50 (UO-31 renal): 3.27 µM | TGI (UO-31 renal): 8.28 µM | GI50 (UACC-62 melanoma): 5.05 µM | TGI (UACC-62 melanoma): 10.3 µM | GI50 (A549 NSCLC): 14.6 µM | TGI (A549 NSCLC): > 47.3 µM | GI50 (OVCAR-4 ovarian): 10.3 µM | TGI (OVCAR-4 ovarian): 22.6 µM | GI50 (NCI-H322M lung): 5.09 µM | TGI (NCI-H322M lung): > 43.6 µM | GI50 (PC-3 prostate): 8.56 µM | TGI (PC-3 prostate): > 53.8 µM | GI50 (TK-10 renal): 15.2 µM | TGI (TK-10 renal): 36 µM | GI50 (EKVX NSCLC): 23 µM | TGI (EKVX NSCLC): > 46 µM | GI50 (OVCAR-3 ovarian): 4.71 µM | TGI (OVCAR-3 ovarian): 10 µM | GI50 (HT29 colon): 29.9 µM | TGI (HT29 colon): > 100 µM | GI50 (NCI/ADR-RES ovarian): 14.3 µM | TGI (NCI/ADR-RES ovarian): 27.5 µM | GI50 (NCI-H23 lung): 25.1 µM | TGI (NCI-H23 lung): > 53.1 µM | GI50 (SF-268 CNS): 6.32 µM | TGI (SF-268 CNS): > 50.2 µM | GI50 (HCC-2998 colon): 24.3 µM | TGI (HCC-2998 colon): 98.8 µM | GI50 (SF-539 CNS): 5.18 µM | TGI (SF-539 CNS): 9.56 µM | GI50 (MDA-MB-468 breast): 6.86 µM | TGI (MDA-MB-468 breast): 19.1 µM | GI50 (A498 renal): 4.69 µM | TGI (A498 renal): 9.11 µM | GI50 (HCT-116 colon): 6.82 µM | TGI (HCT-116 colon): 20.3 µM | GI50 (RXF 393 renal): 7.33 µM | TGI (RXF 393 renal): > 27.7 µM | GI50 (CAKI-1 renal): 4.23 µM | TGI (CAKI-1 renal): 12.6 µM | GI50 (MALME-3M melanoma): 2.29 µM | TGI (MALME-3M melanoma): 7.05 µM | GI50 (ACHN renal): 12.6 µM | TGI (ACHN renal): > 46.9 µM | GI50 (MDA-MB-435 melanoma): 18.6 µM | TGI (MDA-MB-435 melanoma): > 59.6 µM | GI50 (SR leukemia): 0.407 µM | TGI (SR leukemia): 0.814 µM | GI50 (SN12C renal): 5.84 µM | TGI (SN12C renal): 20 µM | GI50 (RPMI-8226 leukemia): 2.54 µM | TGI (RPMI-8226 leukemia): 14.9 µM | GI50 (SNB-75 CNS): 6.7 µM | TGI (SNB-75 CNS): 13.8 µM | GI50 (KM12 colon): 2.64 µM | TGI (KM12 colon): > 55 µM | GI50 (SW-620 colon): 6.12 µM | TGI (SW-620 colon): > 57.8 µM | GI50 (CCRF-CEM leukemia): 22.9 µM | TGI (CCRF-CEM leukemia): > 100 µM | GI50 (NCI-H522 lung): 1.29 µM | TGI (NCI-H522 lung): 23.7 µM | GI50 (HOP-62 NSCLC): 13.5 µM | TGI (HOP-62 NSCLC): 28.7 µM | GI50 (T-47D breast): 2.9 µM | TGI (T-47D breast): 21.3 µM

O=c1[nH]cnc2[nH]ncc12
GI50 (HL-60(TB) leukemia): 74.5 µM | GI50 (NCI-H23 lung): 98.4 µM | GI50 (MDA-MB-468 breast): 85.2 µM | GI50 (CAKI-1 renal): 36.8 µM | GI50 (RPMI-8226 leukemia): 24 µM | TGI (RPMI-8226 leukemia): 60.9 µM

— PubChem BioAssay (NCI)
